Blank lines part the entries; values can stand above or below the compound they belong to. Peptide text beside a SMILES is read from it.
Experiments:
[1] = target: T1, hGIIA/vimentin interaction (Homo sapiens, UniProt P08670); test: Enzyme immunoassay of hGIIA binding to vimentin coil 2; details: 0.1-100 µM
T1 construct: Purified vimentin fragments (full length or coil 2) were seeded to a 96-well microplate at 15 μg/mL; hGIIA purified in house from conditioned medium of CHO cell line 2B1
Experimental: Prior to assay, hGIIA antibody 4A1 was conjugated to alkaline phosphatase (4A1-AP), produced using the lightning-link conjugation kit (ab102850, Abcam) as per the manufacturer’s instructions.
Purified vimentin fragments (full length or coil 2) were seeded to a 96-well microplate at 15 μg/mL with a 100 μL/well volume. After an overnight incubation at 4 °C, the plate was emptied. Each well was then blocked overnight at 4 °C with 200 μL of 1% BSA in PBS. The plate was emptied and washed with PBST (PBS + 0.05% Tween20). hGIIA solution of 100 ng/mL in PBS with 0.1% BSA was prepared with and without inhibitors c2, Withaferin A and LY311727 in DMSO with concentrations 0.1-100 µM. hGIIA working solution with 0.4% DMSO served as a positive control and PBS with 0.1% BSA served as a negative control. A 100 μL volume of each prepared hGIIA-inhibitor mixture was added to wells in triplicate and incubated at 37 °C for two hours. The plate was washed twice with PBST, then incubated with the 4A1-AP conjugate at 1 μg/mL 0.1% BSA in PBS and incubated for one hour at 37 °C. Plates were then emptied and washed three times with PBST, followed by washing twice with carbonate buffer (8 mM Na2CO3, 36 mM NaHCO3, 2 mM MgCl2, pH 9.8), before incubation with AP substrate p-nitro-phenyl phosphate (PNPP) powder at 1 mg/mL concentration in carbonate buffer. The plate was incubated at 37 °C for 60 mins then absorbance was read at 405 nm by a Spectramax M2 plate reader. All washes were a 200 µL/well volume.

[2] = tested on: fibroblast-like synoviocytes derived from patients with rheumatoid arthritis; details: cited from earlier work
[3] = Pharmacokinetics of tritiated cF and c2 in BALB/c mice; type: in vivo
Experimental: All animal studies were performed according to the guidelines for the ethical use of animals published by the National Health and Medical Research Council of Australia. Mouse pharmacokinetic studies were conducted with approval from the Garvan Institute Animal Ethics Committee (approval #02/21). cF and c2 were radioactively labelled with tritium by catalytic saturation of peptide analogues containing dehydroleucine (Sibtech Inc.), yielding high specific activity (50–60 Ci/mmol) peptides. Their identity was confirmed by three separate analytical methods prior to delivery. Mice (BALB/c, n = 4 per timepoint) were administered a single dose of peptide by the routes and times indicated. Animals were then exsanguinated by cardiac puncture under halothane anaesthesia followed by cervical dislocation. Tissues and plasma were stored at −80 °C prior to analysis. For plasma, a known volume of plasma was added to liquid scintillant (Ultima Gold, Perkin Elmer). For tissues, a known amount of tissue (50–100 mg) was incubated in NaOH (1 mL, 1 M) overnight at room temperature. The solutions were then bleached with disodium EDTA (100 µl, 0.1%) and hydrogen peroxide (300 µl, 30%) and incubated at 50 °C for one hour. The peptide content of plasma and tissues was determined by liquid scintillation counting. The stability of the peptides following administration to animals was evaluated by thin-layer chromatography of tissue-extracted peptide relative to peptide prior to injection (Fig. S2c).

hGIIA = details: cited from earlier work
[4] = tested on: LNCaP-luc xenograft tumours in castrated mice; test: Castrate-resistant model of PCa; type: in vivo, BALB/c nu/nu mice; details: cF 2 mg/kg po daily; p = 0.0419
Text: Mice (BALB/c nu/nu) carrying LNCaP-luc xenograft tumours ( > 65.5 mm^3) were surgically castrated 2.0 - 6.6 weeks post-tumour establishment. Treatment was commenced five weeks post-castration and the study terminated 10 weeks post-treatment commencement.

[5] = Toxicity and serum enzyme levels in PCa xenograft model mice; type: in vivo
Experimental: Fig. 1 Derived from the structure of hGIIA, cF and c2 are orally absorbed, cell permeable and non-toxic. a Structure of hGIIA showing disulphide bonds (yellow) and the location of the peptide sequence ^70FLSYK^74 (cyan), which was cyclised to produce pentapeptide cF, then modified to produce c2. b Plasma concentrations of tritiated cF (red) and c2 (blue) following subcutaneous (sc) administration (circles) or oral (po) administration (squares) at 5 mg/kg to BALB/c mice (mean ± SE, n = 4 per time point). Tissue concentrations of c cF and d c2 following sc administration determined in the liver (blue) and kidney (brown) (mean ± SE). Dashed lines indicate estimated background levels of tritium in tissues due to tissue blood content (10% of peak plasma concentration). e–i Following po administration of c2 at 100 mg/kg to male rats (n = 5 per group), levels of c2 were measured in e plasma, f kidney, g faeces, h urine and i liver at timepoints indicated via LCMS/MS (mean ± SE). j Serum enzyme levels of markers of kidney function (creatinine), liver damage (AST and ALT) and heart damage (CK) in PCa xenograft model mice in response to treatment with vehicle (po, 3 x weekly for 6.1 ± 1.6 weeks), cF (10 mg/kg, po, 3 x weekly for 5.4 ± 0.9 weeks) or c2 (10 mg/kg, po, 3 x weekly for 4.8 ± 0.8 weeks) (n = 4, mean ± SE). Data were obtained by the South Eastern Area Laboratory Services Pathology Laboratory at Prince of Wales Hospital, Randwick, Australia. k PCa cell lines LNCaP, PC-3, and DU145 cells incubated with 100 µM c2 (green) for 24 hours with DAPI (blue), scale bar 10 µm (representative cells of n = 3 biological replicates, 5 cells per replicate).
A key failing of previous enzymatic inhibitors of hGIIA was toxicity, resulting in increased incidence of myocardial infarction in a phase III clinical trial. Thus, the toxicity profile of novel hGIIA inhibitors is critically important in evaluating new inhibitors. […] Extensive histopathology was performed on all animals in the control and high dose groups sacrificed on day 29, with no difference observed between the treated groups and the vehicle control group by any measure. […] In light of the toxicity associated with the myocardial infarction study, data from this c2 toxicity study relevant to heart toxicity are shown in Table 1. Heart wet weight was not affected by either low or high dose relative to vehicle, indicating the compound has no significant pro-hypertrophy effect at these doses. The lack of effect of c2 on gross necropsy or histopathology scores also supports the preclinical safety of the compound in the heart. Importantly, c2 has no effect on serum potassium levels or the Na/K ratio, since hypokalemia (low potassium) is highly arrythmogenic. […] It is of interest also that serum alanine transaminase is unaffected by c2 at the doses tested, since this marker was raised three-fold over the normal range in 6.3-fold more patients on varespladib than placebo in the VISTA acute coronary syndrome trial of this sPLA2 inhibitor [13].

[6] = tested on: LNCaP-luc xenograft tumours; test: Androgen-sensitive xenograft model; type: in vivo, BALB/c nu/nu mice; details: cF 2 mg/kg po daily
Experimental: BALB/c nu/nu mice (which express murine hGIIA) (n = 13 per group) were injected subcutaneously with 1 × 10^6 luciferase-tagged LNCaP cells (LNCaP-luc) in RPMI 5% FBS/Matrigel (1:1). Subcutaneous tumours (> 65.5 mm^3), in mice randomised to […], were treated by gavage with either vehicle (saline, 1% dimethylformamide (DMF), po, daily) cF (2 mg/kg po, daily) or c2 (0.1 mg/kg, thrice weekly). Mouse weight and tumour diameter, ((d1) and at 90 degrees to d1 (d2) measured with calipers) were recorded twice weekly. Diameter measurements were used to calculate tumour volume; Vol. = π/6 (d1.d2)^3/2, with treatments blinded to experimentalists. Animals were treated for 8-10 weeks unless culled due to tumour volume reaching 15 x 15 mm (1768 mm^3). End of study plasma PSA levels were measured by ELISA. Bioluminescence images were obtained weekly using the IVIS® Lumina (Perkin-Elmer). D-Luciferin, Firefly, potassium salt (150 mg/kg), (Gold Biotechnology Inc.) substrate was administered intraperitoneally prior to imaging. Images were acquired after 10 min with an image time of 60 s, medium binning, F/Stop=1. Images were quantified using the Living Image software (Perkin-Elmer).
(§1) Tumours were fixed with 10% neutral buffered formalin and stored in 70% ethanol, then paraffin-embedded and cut into 5 µm consecutive sections. Samples were deparaffinised with xylene and […] with ethanol using standard protocols, with antigens retrieved by incubating samples in citrate buffer (pH 6) at 95 °C for 20 min. Samples were then incubated with 3% H2O2 in methanol for 30 min to remove endogenous peroxidases, then blocked with 10% goat serum in PBS for 30 min. Samples were then incubated overnight at 4 °C with a range of antibodies: Ki67 (Abcam, ab15580, 1:100), vimentin (1:333), CD31 (Abcam, ab28364, 1:50) and hGIIA (1:100) (Cayman Chemical, Ann Arbour, MI). TUNEL assay (Abcam) was also used to identify apoptosis. Samples were then washed, stained with Rabbit IHC secondary antibody (1:100) (Dako, Glostrup, Denmark) and counterstained with Gill's haematoxylin (1:5) (Dako). Samples were imaged using an M8 digital microscope (PreciPoint GmbH, Freising, Germany) and DAB staining was scored in a blind manner using ImageJ as described previously.

[7] = tested on: PC-3M-luc xenograft tumours; test: Androgen-receptor independent xenograft model; type: in vivo, BALB/c nu/nu mice
Experimental: Mice (BALB/c nu/nu) carrying luciferase-tagged PC-3M cells (PC-3M-luc) were each injected sc with 1 × 10^6 cells suspended in RPMI culture medium. […] Tumour volume and animal weights were measured twice weekly.
as §1

castrate-resistant PCa = tested on: castrate-resistant PCa; set-up: method as in PMID 15470213; details: cited from earlier work
[8] = cited from earlier work

T1 sequence (P08670 269-407 limits assumed): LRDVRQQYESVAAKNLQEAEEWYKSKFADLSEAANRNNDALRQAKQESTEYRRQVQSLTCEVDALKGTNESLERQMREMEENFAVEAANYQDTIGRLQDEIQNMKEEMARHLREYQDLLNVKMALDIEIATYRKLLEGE

inhibition of the hGIIA/vimentin interaction [1]: did not inhibit
SMILES: CCc1c(CC(N)=O)c2cc(OCCCP(=O)(O)O)ccc2n1Cc1ccccc1 [LY311727]

SMILES: CC(C)C[C@@H]1NC(=O)[C@H](Cc2ccccc2)NC(=O)[C@H](CCCNC(=N)N)NC(=O)[C@H](Cc2ccc(O)cc2)NC(=O)[C@H](CO)NC1=O [cF, cyclo-(Phe-Leu Ser-Tyr-Arg)] (cyclo(FLSYR))
synthesis of exogenous hGIIA-mediated prostaglandin (PG) [2]: suppress
liver and kidney concentrations relative to c2 ([3]; 5 mg/kg): ~ 10 fold
plasma concentration relative to c2 ([3]; 5 mg/kg, sc or po): ~ 10 fold
oral bioavailability (in words) ([3]; sc and po administration): orally bioavailable
oral bioavailability relative to sc delivery (AUC analysis) ([3]; tritiated peptide 5 mg/kg, po vs sc, at 16 hours): ~20%
potency in the inhibition of hGIIA catalytic activity, less than other hGIIA inhibitors (hGIIA): ~ 1000 fold
relative tumour volume from time 0 at 10 weeks [4]: significantly reduced
serum creatinine, aspartate aminotransferase, alanine aminotransferase, creatine kinase levels ([5]; 10 mg/kg po thrice weekly): no significant changes
damage to organs ([5]; 10 mg/kg thrice weekly for 10 weeks): no observable damage to organs
gross toxicity ([5]; max dosages of 10 mg/kg thrice weekly for 10 weeks): No gross toxicity
tumour volume ([6]; ten weeks, p = 0.0229): significant suppression
PSA levels ([6]; p = 0.0158): significantly reduced
tumour weight ([6]; p = 0.0235): significant suppression
luciferase signal ([6]; p = 0.0284): reduced
increase of TUNEL signal ([7]; cF): not seen
proliferative marker Ki67 relative to control ([7]; cF): significant increase
growth of tumours relative to vehicle controls ([7]; cF 5 mg/kg daily po, p < 0.05): significantly slowed the growth of tumours
animals surviving until study termination at 6 months ([7]; cF daily): 13%

SMILES: CC(=O)O[C@@]12CO[C@@H]1C[C@H](O)[C@@]1(C)C(=O)[C@H](O)C3=C(C)[C@@H](OC(=O)[C@H](O)[C@@H](NC(=O)OC(C)(C)C)c4ccccc4)C[C@@](O)([C@@H](OC(=O)c4ccccc4)[C@H]21)C3(C)C [docetaxel]
tumour response (castrate-resistant PCa): 12%

SMILES: CCc1c(C(=O)C(N)=O)c2c(OCC(=O)O)cccc2n1Cc1ccccc1 [varespladib]
patients with ALT raised three-fold over the normal range, varespladib vs placebo [8]: 6.3 fold

inhibition of the hGIIA/vimentin interaction [1]: did not inhibit
SMILES: CC1=C(CO)C(=O)O[C@@H]([C@@H](C)[C@H]2CC[C@H]3[C@@H]4C[C@H]5O[C@]56[C@@H](O)C=CC(=O)[C@]6(C)[C@H]4CC[C@]23C)C1 [withaferin A]

Reference: article PMC12876990, “Targeting secreted PLA2 interactions with EGFR and vimentin to arrest prostate tumour growth” (Cell Death & Disease, 2025)
